Results as given in article PMC10066365, “Nemacol is a small molecule inhibitor of C. elegans vesicular acetylcholine transporter with anthelmintic potential” (Nature Communications, 2023).
Values joined by “and” are separate entries in the source; they are usually repeats but may differ in a detail not shown here. Identical values can stand only once.

Legend:
C. elegans = C. elegans motor phenotype scoring on solid media (Punc/jerky-unc, coiled, paralyzed), wild-type young adults; type: in vivo, Caenorhabditis elegans; conditions: for atypical locomotion (number of animals) / coiled (number of animals) / no phene (number of animals) / paralyzed (number of animals): young adults, 20 animals per trial, single replicate counts; for Fraction Coiled / Fraction Jerky-Unc / Fraction No Phenotype / Fraction Parayzed / Fraction Coiled, Averages of 3 biological repeats / Fraction Jerky-Unc, Averages of 3 biological repeats / Fraction No Phenotype, Averages of 3 biological repeats / Fraction Parayzed, Averages of 3 biological repeats / C1 (loose coil) worm count / C2 (tight coil) worm count / J (jerky-unc) worm count / NP (no phene) worm count / P (paralyzed) worm count: 60 min; for rep 1 atypical locomotion / rep 1 coiled / rep 1 no phene / rep 1 paralyzed: N2, count of 20 animals
Pristionchus pacificus = Pristionchus pacificus motor disruption dose-response on solid media, 1 h; conditions: for mean % any phene (coiled, jerky-Unc or paralyzed): Pristionchus pacificus young adults, mean of three biological replicates; for rep 1 atypical locomotion / rep 1 coiled / rep 1 no phene / rep 1 paralyzed: count of 20 animals per trial, one hour
[1] = 15 µM, N2 adult worms, Averages of 3 biological repeats
[2] = 15 µM, N2 adult worms, Bio Rep 1
[3] = 15 µM, N2 adult worms, Bio Rep 3
[4] = 15 µM, N2 adult worms, Bio rep 2
[5] = 30 µM, N2 adult worms, Averages of 3 biological repeats
[6] = 30 µM, N2 adult worms, Bio Rep 1
[7] = 30 µM, N2 adult worms, Bio Rep 3
[8] = 30 µM, N2 adult worms, Bio rep 2
[9] = 60 µM, N2 adult worms, Averages of 3 biological repeats
[10] = 60 µM, N2 adult worms, Bio Rep 1
[11] = 60 µM, N2 adult worms, Bio Rep 3
[12] = 60 µM, N2 adult worms, Bio rep 2
[13] = N2, 15 µM, adult worms, average of 3 biological repeats
[14] = N2, 30 µM, adult worms, average of 3 biological repeats
[15] = N2, 60 µM, adult worms, average of 3 biological repeats
[16] = N2 series 1 (run with e245, md414), 15 µM
[17] = N2 series 1 (run with e245, md414), 15 µM, single Bio Rep
[18] = N2 series 1 (run with e245, md414), 30 µM
[19] = N2 series 1 (run with e245, md414), 30 µM, single Bio Rep
[20] = N2 series 1 (run with e245, md414), 60 µM
[21] = N2 series 1 (run with e245, md414), 60 µM, single Bio Rep
[22] = N2 series 2 (run with e327), 15 µM
[23] = N2 series 2 (run with e327), 15 µM, single Bio Rep
[24] = N2 series 2 (run with e327), 30 µM
[25] = N2 series 2 (run with e327), 30 µM, single Bio Rep
[26] = N2 series 2 (run with e327), 60 µM
[27] = N2 series 2 (run with e327), 60 µM, single Bio Rep

O=[N+]([O-])c1ccc(N2CCN(CC3CCCCC3)CC2)cc1 [Nemacol-1]
atypical locomotion (number of animals) (C. elegans; 3.75uM, one hour): 9 and 12 and 2 and 3 and 11
coiled (number of animals) (C. elegans; 3.75uM, one hour): 0 and 2 and 1
no phene (number of animals) (C. elegans; 3.75uM, one hour): 11 and 8 and 16 and 17 and 9
paralyzed (number of animals) (C. elegans; 3.75uM, one hour): 0
Fraction Coiled (C. elegans; [1]): 0.15
Fraction Jerky-Unc (C. elegans; [1]): 0.69
Fraction No Phenotype (C. elegans; [1]): 0.15
Fraction Parayzed (C. elegans; [1]): 0.0185
Fraction Coiled (C. elegans; [2]): 0.17
Fraction Jerky-Unc (C. elegans; [2]): 0.6111
Fraction No Phenotype (C. elegans; [2]): 0.22
Fraction Parayzed (C. elegans; [2]): 0
Fraction Coiled (C. elegans; [3]): 0.11
Fraction Jerky-Unc (C. elegans; [3]): 0.8333
Fraction No Phenotype (C. elegans; [3]): 0.0556
Fraction Parayzed (C. elegans; [3]): 0
Fraction Coiled (C. elegans; [4]): 0.17
Fraction Jerky-Unc (C. elegans; [4]): 0.6111
Fraction No Phenotype (C. elegans; [4]): 0.17
Fraction Parayzed (C. elegans; [4]): 0.05556
any phene, mean % fraction of young adults exhibiting any phenotype (coiled, jerky-Unc or paralyzed) (C. elegans; 15uM, one hour, mean of three biological replicates): 91.0317%
atypical locomotion (number of animals) (C. elegans; 15uM, one hour): 6 and 4 and 7 and 5 and 12 and 16
coiled (number of animals) (C. elegans; 15uM, one hour): 5 and 8 and 13 and 4
no phene (number of animals) (C. elegans; 15uM, one hour): 0 and 5 and 2 and 4
paralyzed (number of animals) (C. elegans; 15uM, one hour): 9 and 11 and 1 and 0
Fraction Coiled (C. elegans; [5]): 0.46
Fraction Jerky-Unc (C. elegans; [5]): 0.31
Fraction No Phenotype (C. elegans; [5]): 0.00
Fraction Parayzed (C. elegans; [5]): 0.23
Fraction Coiled (C. elegans; [6]): 0.61
Fraction Jerky-Unc (C. elegans; [6]): 0.2222
Fraction No Phenotype (C. elegans; [6]): 0.00
Fraction Parayzed (C. elegans; [6]): 0.1667
Fraction Coiled (C. elegans; [7]): 0.41
Fraction Jerky-Unc (C. elegans; [7]): 0.3529
Fraction No Phenotype (C. elegans; [7]): 0.00
Fraction Parayzed (C. elegans; [7]): 0.2353
Fraction Coiled (C. elegans; [8]): 0.35
Fraction Jerky-Unc (C. elegans; [8]): 0.3529
Fraction No Phenotype (C. elegans; [8]): 0.00
Fraction Parayzed (C. elegans; [8]): 0.2941
Fraction Coiled (C. elegans; [9]): 0.60
Fraction Jerky-Unc (C. elegans; [9]): 0.10
Fraction No Phenotype (C. elegans; [9]): 0.00
Fraction Parayzed (C. elegans; [9]): 0.29
Fraction Coiled (C. elegans; [10]): 0.69
Fraction Jerky-Unc (C. elegans; [10]): 0.125
Fraction No Phenotype (C. elegans; [10]): 0.00
Fraction Parayzed (C. elegans; [10]): 0.1875
Fraction Coiled (C. elegans; [11]): 0.56
Fraction Jerky-Unc (C. elegans; [11]): 0.1111
Fraction No Phenotype (C. elegans; [11]): 0.00
Fraction Parayzed (C. elegans; [11]): 0.3333
Fraction Coiled (C. elegans; [12]): 0.57
Fraction Jerky-Unc (C. elegans; [12]): 0.07143
Fraction No Phenotype (C. elegans; [12]): 0.00
Fraction Parayzed (C. elegans; [12]): 0.3571
atypical locomotion (number of animals) (C. elegans; 60uM, one hour): 2 and 1 and 4
coiled (number of animals) (C. elegans; 60uM, one hour): 7 and 11 and 17 and 19 and 12 and 8
no phene (number of animals) (C. elegans; 60uM, one hour): 0
paralyzed (number of animals) (C. elegans; 60uM, one hour): 11 and 7 and 1 and 0 and 6 and 8
motor defects after 24 h on compound (C. elegans; 24 h): no longer have obvious motor defects
EC50 (C. elegans; Caenorhabditis elegans, 1 h, read-out: C. elegans - motor disruption EC50): 7.1 µM
Fraction Coiled (C. elegans; [13]): 0.15
Fraction Jerky-Unc (C. elegans; [13]): 0.69
Fraction No Phenotype (C. elegans; [13]): 0.15
Fraction Parayzed (C. elegans; [13]): 0.0185
Fraction Coiled (C. elegans; [14]): 0.46
Fraction Jerky-Unc (C. elegans; [14]): 0.31
Fraction No Phenotype (C. elegans; [14]): 0.00
Fraction Parayzed (C. elegans; [14]): 0.23
Fraction Coiled (C. elegans; [15]): 0.60
Fraction Jerky-Unc (C. elegans; [15]): 0.10
Fraction No Phenotype (C. elegans; [15]): 0.00
Fraction Parayzed (C. elegans; [15]): 0.29
rep 1 atypical locomotion (C. elegans; conc 3.75): 3
rep 1 coiled (C. elegans; conc 3.75): 2
rep 1 no phene (C. elegans; conc 3.75): 15
rep 1 paralyzed (C. elegans; conc 3.75): 0
rep 1 atypical locomotion (C. elegans; conc 15): 3
rep 1 coiled (C. elegans; conc 15): 4
rep 1 no phene (C. elegans; conc 15): 7
rep 1 paralyzed (C. elegans; conc 15): 6
rep 1 atypical locomotion (C. elegans; conc 60): 2
rep 1 coiled (C. elegans; conc 60): 3
rep 1 no phene (C. elegans; conc 60): 0
rep 1 paralyzed (C. elegans; conc 60): 15
Fraction Coiled, Averages of 3 biological repeats (C. elegans; [16]): 0.26
Fraction Jerky-Unc, Averages of 3 biological repeats (C. elegans; [16]): 0.67
Fraction No Phenotype, Averages of 3 biological repeats (C. elegans; [16]): 0.037
Fraction Parayzed, Averages of 3 biological repeats (C. elegans; [16]): 0.037
C1 (loose coil) worm count (C. elegans; [17]): 1 and 2
C2 (tight coil) worm count (C. elegans; [17]): 3 and 4
Fraction Coiled (C. elegans; [17]): 0.28 and 0.22
Fraction Jerky-Unc (C. elegans; [17]): 0.6111 and 0.7222 and 0.6667
J (jerky-unc) worm count (C. elegans; [17]): 13 and 11 and 12
Fraction Coiled, Averages of 3 biological repeats (C. elegans; [18]): 0.59
Fraction Jerky-Unc, Averages of 3 biological repeats (C. elegans; [18]): 0.28
Fraction No Phenotype, Averages of 3 biological repeats (C. elegans; [18]): 0.00
Fraction Parayzed, Averages of 3 biological repeats (C. elegans; [18]): 0.13
C1 (loose coil) worm count (C. elegans; [19]): 5
C2 (tight coil) worm count (C. elegans; [19]): 5 and 7
Fraction Coiled (C. elegans; [19]): 0.56 and 0.67
Fraction Jerky-Unc (C. elegans; [19]): 0.1667 and 0.3333
Fraction No Phenotype (C. elegans; [19]): 0.00
J (jerky-unc) worm count (C. elegans; [19]): 6 and 3
NP (no phene) worm count (C. elegans; [19]): 0
Fraction Coiled, Averages of 3 biological repeats (C. elegans; [20]): 0.64
Fraction Jerky-Unc, Averages of 3 biological repeats (C. elegans; [20]): 0.11
Fraction No Phenotype, Averages of 3 biological repeats (C. elegans; [20]): 0.00
Fraction Parayzed, Averages of 3 biological repeats (C. elegans; [20]): 0.25
C1 (loose coil) worm count (C. elegans; [21]): 3 and 4
C2 (tight coil) worm count (C. elegans; [21]): 6 and 8
Fraction Coiled (C. elegans; [21]): 0.67 and 0.60
Fraction No Phenotype (C. elegans; [21]): 0.00
NP (no phene) worm count (C. elegans; [21]): 0
Fraction Coiled, Averages of 3 biological repeats (C. elegans; [22]): 0.20
Fraction Jerky-Unc, Averages of 3 biological repeats (C. elegans; [22]): 0.69
Fraction No Phenotype, Averages of 3 biological repeats (C. elegans; [22]): 0.11
Fraction Parayzed, Averages of 3 biological repeats (C. elegans; [22]): 0.00
C2 (tight coil) worm count (C. elegans; [23]): 3 and 2
Fraction Jerky-Unc (C. elegans; [23]): 0.7778 and 0.6667 and 0.6316
Fraction No Phenotype (C. elegans; [23]): 0.11
Fraction Parayzed (C. elegans; [23]): 0
J (jerky-unc) worm count (C. elegans; [23]): 12 and 14
NP (no phene) worm count (C. elegans; [23]): 2
P (paralyzed) worm count (C. elegans; [23]): 0
Fraction Coiled, Averages of 3 biological repeats (C. elegans; [24]): 0.49
Fraction Jerky-Unc, Averages of 3 biological repeats (C. elegans; [24]): 0.36
Fraction No Phenotype, Averages of 3 biological repeats (C. elegans; [24]): 0.00
Fraction Parayzed, Averages of 3 biological repeats (C. elegans; [24]): 0.15
C2 (tight coil) worm count (C. elegans; [25]): 4 and 7 and 6
Fraction No Phenotype (C. elegans; [25]): 0.00
NP (no phene) worm count (C. elegans; [25]): 0
Fraction Coiled, Averages of 3 biological repeats (C. elegans; [26]): 0.57
Fraction Jerky-Unc, Averages of 3 biological repeats (C. elegans; [26]): 0.11
Fraction No Phenotype, Averages of 3 biological repeats (C. elegans; [26]): 0.00
Fraction Parayzed, Averages of 3 biological repeats (C. elegans; [26]): 0.32
C1 (loose coil) worm count (C. elegans; [27]): 3 and 4
Fraction Coiled (C. elegans; [27]): 0.58 and 0.41 and 0.72
Fraction No Phenotype (C. elegans; [27]): 0.00
Fraction Parayzed (C. elegans; [27]): 0.3158 and 0.3529 and 0.2778
NP (no phene) worm count (C. elegans; [27]): 0
P (paralyzed) worm count (C. elegans; [27]): 6 and 5
fold difference in C. elegans EC50, Vesamicol vs Nemacol-1 (C. elegans; Vesamicol EC50 higher, Nemacol-1 more potent): 5.4 fold
mean % any phene (coiled, jerky-Unc or paralyzed) (Pristionchus pacificus; conc 3.75, observed at one hour): 0%
mean % any phene (coiled, jerky-Unc or paralyzed) (Pristionchus pacificus; conc 15, observed at one hour): 56.6667%
mean % any phene (coiled, jerky-Unc or paralyzed) (Pristionchus pacificus; conc 60, observed at one hour): 100%
EC50 (Pristionchus pacificus; Pristionchus pacificus, 1 h, read-out: P. pacificus motor disruption EC50): 14.1 ± 2.9 µM
rep 1 atypical locomotion (Pristionchus pacificus; conc 3.75): 4
rep 1 coiled (Pristionchus pacificus; conc 3.75): 1
rep 1 no phene (Pristionchus pacificus; conc 3.75): 15
rep 1 paralyzed (Pristionchus pacificus; conc 3.75): 0
rep 1 atypical locomotion (Pristionchus pacificus; conc 15): 13
rep 1 coiled (Pristionchus pacificus; conc 15): 1
rep 1 no phene (Pristionchus pacificus; conc 15): 6
rep 1 paralyzed (Pristionchus pacificus; conc 15): 0
rep 1 atypical locomotion (Pristionchus pacificus; conc 60): 0
rep 1 coiled (Pristionchus pacificus; conc 60): 2
rep 1 no phene (Pristionchus pacificus; conc 60): 0
rep 1 paralyzed (Pristionchus pacificus; conc 60): 18
